From patent US6355681B2, “Glycine substitutes and precursors for treating a psychosis” (Glytech, Inc., priority 1995, dated 2002)
Like-named read-outs stand apart in the source and are kept apart here.

Assays:
[1] = biological target: T1, GLYT1-mediated synaptosomal glycine transport (Rattus norvegicus, UniProt P28572); test: Inhibition of [3H]glycine uptake in P2 synaptosomal fractions; type: biochemical, Sprague-Dawley rats; details: 100 μg/ml
T1 construct: Synaptosomal P2 fractions were prepared from cerebral cortex+hippocampus of Sprague-Dawley rats; from tissue; host or cells: rat cerebral cortex + hippocampus, P2 synaptosomal fraction
T1 sequence (P28572 1-638): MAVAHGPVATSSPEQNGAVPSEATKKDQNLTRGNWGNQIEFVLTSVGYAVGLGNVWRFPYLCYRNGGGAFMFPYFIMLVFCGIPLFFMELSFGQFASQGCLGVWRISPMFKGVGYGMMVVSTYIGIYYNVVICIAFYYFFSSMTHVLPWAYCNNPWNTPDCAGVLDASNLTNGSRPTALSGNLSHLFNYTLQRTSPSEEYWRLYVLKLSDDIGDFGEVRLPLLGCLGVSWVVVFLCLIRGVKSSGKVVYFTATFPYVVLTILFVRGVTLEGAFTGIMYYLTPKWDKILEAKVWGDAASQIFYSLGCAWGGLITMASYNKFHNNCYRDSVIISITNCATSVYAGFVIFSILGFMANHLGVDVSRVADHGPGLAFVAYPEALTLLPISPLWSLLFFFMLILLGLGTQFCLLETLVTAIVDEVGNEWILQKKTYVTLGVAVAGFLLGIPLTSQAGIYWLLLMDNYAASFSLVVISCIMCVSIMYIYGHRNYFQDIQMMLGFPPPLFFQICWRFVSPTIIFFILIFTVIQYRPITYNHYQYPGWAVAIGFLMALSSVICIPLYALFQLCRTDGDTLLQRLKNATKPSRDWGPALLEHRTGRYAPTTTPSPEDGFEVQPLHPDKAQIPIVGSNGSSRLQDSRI
Method: Synaptosomal P2 fractions were prepared from cerebral cortex+hippocampus of Sprague-Dawley rats (200-250 g). Brain tissue was homogenized in 0.32 M sucrose in Tris-HCl buffer (pH 7.4), and centrifuged at 1,000×g for 10 min at 4° C. in a Sorvall 5C centrifuge. The supernatant was then centrifuged at 14,000×g for 10 min and the pellet resuspended in artificial CSF having the following composition (mM): NaCl, 125; KCl, 3; MgSO4, 1.2; CaCl2, 1.2; NaH2PO4, 1; NaHCO3, 22; glucose, 10. Homogenate was aerated with 95% O2/5% CO2 until use. 1 ml aliquots of homogenate were preincubated with specific concentrations of glycineamide derivatives, following which incubation was initiated by the addition of 10 μl of 10 μM [^3H]glycine (DuPont/NEN or Sigma, spec. act.≈45 Ci/mmol) to obtain a final concentration of 100 nM. Nonspecific binding was determined in the presence of 10 mM sarcosine. Following 5 min, incubation was terminated by filtration under reduced pressure using a Brandel 24-well cell harvester and Whatman GF-B filters. Radioactivity was determined by scintillation counter with approximate efficiency of 50%.

[2] = tested on: PCP-induced hyperactivity; test: Inhibition of PCP-induced locomotor hyperactivity; type: in vivo, BALB/c mice; details: for inhibition of PCP-induced hyperactivity: 100 mg/kg i.p. pretreatment, summed activity over 90 min
Method: (§1) Behavioral studies were performed using BALB/c mice (25 g) of either sex. Rodent activity was monitored using a photocell-based activity meter (Columbus Instruments Auto-Track System, Columbus, Ohio). Animals were placed in test cages and allowed to accommodate overnight. […] 30 min. after pretreatment, animals were injected with either PCP (5 mg/kg i.p.) or amphetamine (5 mg/kg s.c.). Activity was then monitored for an additional 90 minutes. For statistical analyses, summed activity over the 90 min. following PCP/amphetamine injection was used as a measure of drug-induced hyperactivity.

[3] = tested on: PCP-induced hyperactivity; details: cited from earlier work
[4] = tested on: amphetamine-induced hyperactivity; test: Effect on amphetamine-induced locomotor hyperactivity; type: in vivo, BALB/c mice; details: GDA 50 mg/kg i.p.; amphetamine 5 mg/kg
Method: as §1

[5] = Double blind, placebo-controlled crossover study of D-cycloserine in schizophrenia (PANSS); type: in vivo, human; details: D-cycloserine 50 mg/day, 6 weeks

CCCCCCCCNC(=O)CN [G8A, glycyloctylamide]
effect on GLYT1-mediated transport at single fixed concentration [1]: no significant effect

CCCCCCCCCCCCNC(=O)CN [GDA, glycyldodecylamide]
PCP-induced hyperactivity, % of control (PCP alone) levels ([2]; 50 mg/kg, PCP 5 mg/kg i.p.): below 70 % of control
inhibition of PCP-induced hyperactivity ([2]; PCP 5 mg/kg i.p.): Significant reductions
PCP-induced hyperactivity, % of control (PCP alone) levels ([2]; 100 mg/kg, PCP 5 mg/kg i.p.): below 50 % of control
effect on hyperactivity induced by PCP ([2]; GDA 50 mg/kg i.p., PCP 5 mg/kg i.p.): significantly reduced
effect on basal activity ([2]; GDA pretreatment 50 mg/kg i.p.): did not significantly affect
effect on GLYT1-mediated transport at single fixed concentration [1]: significant inhibition
potency in reversing PCP-induced hyperactivity relative to glycine (Toth et al., 1986) ([3]; early preclinical studies): significantly more potent than glycine
doses inhibiting PCP-induced hyperactivity (prior studies) ([3]; i.p., prior studies): 50 to 200 mg/kg
effect on hyperactivity induced by amphetamine [4]: not significantly altered

N[C@@H]1CONC1=O [D-cycloserine]
change in general psychopathology scores (PANSS) [5]: did not change significantly
change in positive symptoms (PANSS) [5]: did not change significantly
mean decrease in negative symptoms [5]: 9.2%
reduction in negative symptoms (PANSS) ([5]; mean±SD): 3.6±3.7 point

NCC(=O)O [glycine]
change in positive symptoms (PANSS) (beginning to end of glycine treatment): did not change significantly
positive symptoms score at end of treatment (end of glycine treatment (beginning 25.7±7.0), mean±SD): 22.0±4.0 points
general psychopathology score at end of treatment (end of glycine treatment (from 56.0±19.4), mean±SD): 43.0±13.8 points
decrease in general psychopathology symptoms (glycine 0.8 g/kg/day, 6 weeks): 23.2%
mean reduction in negative symptoms (glycine 0.8 g/kg/day, 6 weeks): 28.5%
reduction in negative symptoms (PANSS) (glycine 0.8 g/kg/day, 6 weeks, 7 neuroleptic-resistant schizophrenia subjects, mean±SD): 11.3±3.6 point
change in general psychopathology (PANSS) (glycine 0.8 g/kg/day, 6 weeks, mean±SD): 13.0±7.7 point
degree of reduction in negative symptoms relative to D-cycloserine treatment (same subjects, change scores compared across the two trials): 3 fold

CCCCCCCCCCCCCNC(=O)CN [G13A, glycyltriscadecylamide]
inhibition of PCP-induced hyperactivity ([2]; PCP 5 mg/kg i.p.): Significant reductions
effect on GLYT1-mediated transport at single fixed concentration [1]: significant inhibition

CCCCCCCCCCCNC(=O)CN [G11A, glycylundecylamide]
effect on GLYT1-mediated transport at single fixed concentration [1]: significant inhibition

CCCCCCCCCCNC(=O)CN [G10A, glycyldecylamide]
inhibition of PCP-induced hyperactivity ([2]; PCP 5 mg/kg i.p.): Significant reductions
effect on GLYT1-mediated transport at single fixed concentration [1]: significant inhibition

glycylhexylamide [G6A]
inhibition of PCP-induced hyperactivity ([2]; PCP 5 mg/kg i.p.): did not significantly inhibit
effect on GLYT1-mediated transport at single fixed concentration [1]: significant potentiation
inhibition of PCP-induced hyperactivity (early study, Toth et al., 1986) ([3]; literature): not to significantly inhibit
